In patent US8278072B1, “Method for synthesis of sialylated products using reversible sialylation” (Health Research, Inc., priority 2007, dated 2012):
Marks after values point to notes of the source that are not given here.

Legend:
Type in all cases: biochemical
ST3Gal-II [1] = biological target: T1, ST3Gal-II (Rattus norvegicus, UniProt Q11205); assay: Exchange of radiolabeled sialyl residues in bovine brain gangliosides (TLC); settings: bovine brain ganglioside mixture, CMP-[9-3H]NeuAc or CMP-[14C]NeuAc
T1 construct: purchased Calbiochem
T1 sequence (Q11205 1-350): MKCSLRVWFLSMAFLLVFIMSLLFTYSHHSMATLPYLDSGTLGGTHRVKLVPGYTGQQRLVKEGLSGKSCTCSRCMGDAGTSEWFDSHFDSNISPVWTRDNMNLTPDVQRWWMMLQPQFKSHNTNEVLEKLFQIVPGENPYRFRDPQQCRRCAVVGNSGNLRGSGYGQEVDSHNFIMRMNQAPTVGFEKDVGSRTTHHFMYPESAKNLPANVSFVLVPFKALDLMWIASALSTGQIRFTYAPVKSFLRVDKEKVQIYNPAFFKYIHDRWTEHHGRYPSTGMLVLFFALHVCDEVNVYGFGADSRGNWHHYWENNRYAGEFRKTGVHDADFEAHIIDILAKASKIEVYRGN
From the text: Rat recombinant ST3Gal-II (α2,3(0)ST) was purchased from Calbiochem. Three different lots of ST3Gal-II purchased from Calbiochem and used in this study yielded similar results. CMP-NeuAc was obtained from Sigma. All enzymatic sialylation reactions were typically carried out in NaCa Codylate buffer pH6.0 in presence of enzyme acceptor CMP-[9-^3H]NeuAc or (NEN-DuPont) CMP[^14C]NeuAc. The concentration of total CMP-NeuAc was adjusted in individual reactions by supplementing with non-radioactive CMP-NeuAc. Products formed were separated using different chromatograph procedures. • a) Gel chromatography on Biogel P2 and P6 columns: A Biogel P2 column or Biogel P6 column (Fine Mesh; 1.0×116.0 cm) was used with 0.1 M pyridine acetate (pH5.4) as the eluent at room temperature. […] The first peak of radioactivity emerging in this void volume was collected and lyophilized to dryness. […]
Both [9-^3H] and [^14C] sialic acid labeled bovine brain ganglioside mixtures were subjected to TLC using CHcl3:CH3OH:0.2% aqueous CaCl2 (v/v 60:40:9) as the solvent system. The radioactivities were located on the TLC plates by scraping silica gel from 0.5 cm width segments of the TLC plates and then counting the radioactivity after soaking silica in 2.0 ml water by scintillation counting. […]

ST3Gal-II [2] = biological target: T1, ST3Gal-II; assay: Donor specificity for reverse sialylation, ST3Gal-II; settings: 0.05 mM donor, […] 5′-CMP, acceptor 5 mM D-Fuc(1,3GalNAc(-O-Bn, 3 mU ST3Gal-II)); zero = slightly below background
From the text: We determined if reverse sialylation was more pronounced for ST3Gal-II in comparison to other sialyltransferases. Thus two other cloned rat sialyltransferases ST3Gal-III (or α2,3(N)ST) and ST6Gal-I (or α2,6(N)ST) (14) were examined. For these studies, we generated two molecules: i) [9-^3H]NeuAcα2,6Galβ1,4GlcNAcβ-O—Al (Al-Allyl) was made by the reaction of Galβ1,4GlcNAcβ-O—Al and CMP-[9-^3H]NeuAc in the presence of α2,6sialyltransferase, ST6Gal-I. (The radioactive product was separated using Biogel P2 column using a protocol similar to that described above.); and ii) [9-^3H]NeuAcα2,3Galβ1,4 GlcNAcβ-O—Al was similarly produced by reacting Galβ1,4GlcNAcβ-O—Al and CMP-[9-^3H]NeuAc in the presence of α2,3sialyltransferase ST3Gal-III. […] However, it is efficiently sialylated by both ST3Gal-III and ST6Gal-I. The ability of these two radiolabeled molecules ([14] and [15]) to act as [9-^3H]NeuAc donors was assayed in studies (Table IV) where the compounds were mixed with excess 5′-CMP, enzyme and acceptors with benzyl aglycan group. C18 cartridges were then used to measure the extent of [9-^3H]NeuAc transferred to acceptor using reaction scheme-II. Because all acceptors used in this table are efficiently sialylated by enzymes listed in the adjacent columns, these experiments essentially measure the amount of CMP-NeuAc formed using particular donor-enzyme pairs. […]

ST3Gal-III = biological target: T2, ST3Gal-III (Rattus norvegicus, UniProt Q02734); assay: Donor specificity for reverse sialylation, ST3Gal-III; settings: 0.05 mM donor, 0.8 mM 5′-CMP
T2 construct: purchased Calbiochem
T2 sequence (Q02734 1-374): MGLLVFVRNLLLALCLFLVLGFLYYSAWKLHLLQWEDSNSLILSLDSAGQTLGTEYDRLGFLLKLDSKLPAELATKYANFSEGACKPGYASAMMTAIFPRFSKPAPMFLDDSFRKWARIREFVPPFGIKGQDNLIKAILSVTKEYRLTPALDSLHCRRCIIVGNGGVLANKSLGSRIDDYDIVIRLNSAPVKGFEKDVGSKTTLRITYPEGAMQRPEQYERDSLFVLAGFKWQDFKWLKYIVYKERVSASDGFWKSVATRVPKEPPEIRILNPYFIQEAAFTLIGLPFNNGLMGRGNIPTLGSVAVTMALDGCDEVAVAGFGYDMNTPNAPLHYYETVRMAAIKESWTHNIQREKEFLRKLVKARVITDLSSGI
From the text: (§1) We determined if reverse sialylation was more pronounced for ST3Gal-II in comparison to other sialyltransferases. Thus two other cloned rat sialyltransferases ST3Gal-III (or α2,3(N)ST) and ST6Gal-I (or α2,6(N)ST) (14) were examined. For these studies, we generated two molecules: i) [9-^3H]NeuAcα2,6Galβ1,4GlcNAcβ-O—Al (Al-Allyl) was made by the reaction of Galβ1,4GlcNAcβ-O—Al and CMP-[9-^3H]NeuAc in the presence of α2,6sialyltransferase, ST6Gal-I. (The radioactive product was separated using Biogel P2 column using a protocol similar to that described above.); and ii) [9-^3H]NeuAcα2,3Galβ1,4 GlcNAcβ-O—Al was similarly produced by reacting Galβ1,4GlcNAcβ-O—Al and CMP-[9-^3H]NeuAc in the presence of α2,3sialyltransferase ST3Gal-III. […] However, it is efficiently sialylated by both ST3Gal-III and ST6Gal-I. The ability of these two radiolabeled molecules ([14] and [15]) to act as [9-^3H]NeuAc donors was assayed in studies (Table IV) where the compounds were mixed with excess 5′-CMP, enzyme and acceptors with benzyl aglycan group. C18 cartridges were then used to measure the extent of [9-^3H]NeuAc transferred to acceptor using reaction scheme-II. Because all acceptors used in this table are efficiently sialylated by enzymes listed in the adjacent columns, these experiments essentially measure the amount of CMP-NeuAc formed using particular donor-enzyme pairs.
(§2) Thus, reverse sialylation takes place with ST3Gal-II.

ST6Gal-I = biological target: T3, ST6Gal-I (Rattus norvegicus, UniProt P13721); assay: Donor specificity for reverse sialylation, ST6Gal-I; settings: 0.05 mM donor, 0.8 mM 5′-CMP, 3 mU ST6Gal-I
T3 construct: purchased Calbiochem
T3 sequence (P13721 1-403): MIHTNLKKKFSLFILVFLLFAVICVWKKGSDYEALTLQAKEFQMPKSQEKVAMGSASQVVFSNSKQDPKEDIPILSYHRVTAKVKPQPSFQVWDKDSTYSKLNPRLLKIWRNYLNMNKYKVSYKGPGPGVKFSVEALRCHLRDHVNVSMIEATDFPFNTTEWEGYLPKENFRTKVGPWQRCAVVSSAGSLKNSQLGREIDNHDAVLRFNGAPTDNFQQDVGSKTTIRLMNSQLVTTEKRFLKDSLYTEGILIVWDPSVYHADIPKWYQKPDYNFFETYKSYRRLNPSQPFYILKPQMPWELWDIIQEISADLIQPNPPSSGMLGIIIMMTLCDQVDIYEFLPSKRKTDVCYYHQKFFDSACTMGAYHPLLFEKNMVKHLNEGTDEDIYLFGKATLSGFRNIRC
From the text: as §1, §2

With GD1a the “Exchange of sialyl residues with CMP-sialic acid by ST3Gal-II” value (ST3Gal-II [1]) was “exchangeable”.
GT1b was tested, and the “Exchange of sialyl residues with CMP-sialic acid by ST3Gal-II” value (ST3Gal-II [1]) was “exchangeable”.
“[9-^3H]NeuAcα2,3Galβ1,4 GlcNAcβ-O—Al [[15]]” was tested, and the Radiolabeled acceptor/product formed (ST3Gal-II [2]) was <0* CPM, the Radiolabeled acceptor/product formed (ST3Gal-III; acceptor 2.5 mM Gal(1,4GlcNAc(1,3Gal(1,4GlcNAc(-O-Bn, 3 mU ST3Gal-III))))) was 24 CPM and the Radiolabeled acceptor/product formed (ST3Gal-III; acceptor 2.5 mM Galβ1,4GlcNAcβ1,6(Galβ1,3)GalNAcα-O-Bn, 3 mU ST3Gal-III) was 27 CPM. For the same substance, the Radiolabeled acceptor/product formed (ST3Gal-III; acceptor 2.5 mM Galβ1,4GlcNAcβ-O-Bn, 3 mU ST3Gal-III) was 5 CPM.
“[9-^3H]NeuAcα2,6Galβ1,4GlcNAcβ-O—Al [[14]]” was tested, and the Radiolabeled acceptor/product formed (ST3Gal-II [2]) was <0* CPM, the Radiolabeled acceptor/product formed (ST6Gal-I; acceptor 2.5 mM Galβ1,4GlcNAcβ1,3Galβ1,4GlcNAcβ-O-Bn) was 45 CPM and the Radiolabeled acceptor/product formed (ST6Gal-I; acceptor 2.5 mM Galβ1,4GlcNAcβ1,6(Galβ1,3)GalNAcα-O-Bn) was 36 CPM. It also gave a Radiolabeled acceptor/product formed (ST6Gal-I; acceptor 2.5 mM Galβ1,4GlcNAcβ-O-Bn) of 129 CPM.
